Assays:
Gli1 = assay: Nuclear Gli1 immunohistochemical staining of BCC lesion biopsies pre- and post-treatment; type: in vivo, human
Experimental: For immunohistochemical (IHC) detection, tissue samples can be fixed in 10% neutral buffered formalin at room temperature before processing for paraffin embedding. The length of fixation depends on the size of the tissue, for example, overnight but not more than 22-24 hours for large tissues; and no more than 2 hours for small core or needle biopsies. The fixed tissues are sectioned to 7 microns […] and mounted on Superfrost Microscope™ slides (Fisher Scientific).
Prior to incubation with anti-Gli1 antibody, antigen retrieval can be performed to break the protein cross-links formed by formalin fixation and thereby reveal hidden antigens. Antigen retrieval buffers with different buffer compositions and pH are commercially available, for example, CC1 (Tris/EDTA, pH 8.0; Ventana, Cat. No. 950-124); CC2 (citrate, pH 6.0; Ventana, Cat. No. 950-123); citrate buffer (pH 6.0; Invitrogen, Cat. No. 00-5000); Target Retrieval Solution (citrate, pH 6.1; Dako, Cat. No. S170084); Target Retrieval Solution (Tris/EDTA, pH 9.0; Dako, Cat. No. S236884); Diva Decloaker (citrate, pH 6.2; Biocare, Cat. No. DV2004 mM); and EDTA Decloaker (EDTA based, pH 8.5; Biocare, Cat. No. CB917 L).
Anti-Gli1 antibodies that can be used to detect nuclear Gli1 protein in tumor samples are commercially available. Exemplary anti-Gli1 antibodies include, e.g., rabbit polyclonal and monoclonal antibody from Cell Signaling Technology (Cat. Nos. 2553 and 3538, respectively); rabbit polyclonal antibody (H-300) from Santa Cruz Biotechnology (Cat. No. se-20687, described in Chung et al., J. Clin. Oncol. 2011; 29(10):1326-34); rabbit polyclonal antibody from Abcam (Cat. No. ab92611); rabbit polyclonal antibody from Abnova (Cat. No. PAB10214); rabbit polyclonal antibody from GenWay Biotech (Cat. No. 18-732-292074); rabbit polyclonal antibody from LifeSpan BioSciences (Cat. No. LS-C66529-50); rabbit polyclonal antibody from Novus Biologicals (Cat. No. NBP1-03294); mouse polyclonal antibody from ProSci (Cat. No. 49-519); goat polyclonal antibody from R&D Systems (Cat. No. AF3455); and rabbit polyclonal antibody from United States Biological (Cat. No. G2035-51A).
Detection of tumor nuclear Gli1 staining in basal cell carcinomas (BCC) was performed using the protocols described in Example 9. FIGS. 23C and 23D show nuclear staining of Gli1 in biopsy samples of a BCC lesion pre- and 22-day post-treatment of IPI-926.
The definition of H-score is known in the art, e.g., as described in Detre, S. et al. (1995) J. Clin. Pathol. […] The intensity in the malignant cell nuclei can be scored as 0, 1, 2, or 3. […] The total number of cells in each field and the number of cells stained at each intensity are counted. The average percentage positive can be calculated and analyzed as described in Detre, S. et al. (1995) supra.

Bx-PC3 tumors = assay: Growth of Bx-PC3 tumors in mice; type: in vivo; details: single agents and combination
Source text: Bevacizumab, a monoclonal antibody, exerts its activity by neutralizing VEGF, a factor important of the proliferation and survival of endothelial cells. […] In the same study, the relative effect of these agents was explored by measuring the mRNA expression of PECAM-1, a marker of endothelial cells and RGS5, a marker of pericytes. […] The role of the vasculature and its supporting pericyte population in the mechanism of action of IPI-926 continues to be explored.
For in vivo studies, tumors were grown in male NCR-nu/nu mice by subcutaneous injection of 5×10^6 cells. Tumor growth was monitored using calipers. When tumors reached an approximate size of 200 mm^3, tumor bearing animals were randomized into treatment arms and administered agents or vehicles as described.

SHh signaling = SHh signaling in pericytic C3H10T1/2 cell cultures (qRT-PCR); type: cell-based, Mouse; details: pericytic C3H10T1/2 cells, SHh plus IPI-926
Experimental: To test this, a model of pericyte cell differentiation, the C3H10T1/2 cells was evaluated. C3H10T1/2 cells were differentiated in vitro into pericytes. C3H10T1/2 cells are believed to be pluripotent mesenchymal cells, which can be induced to differentiate into multiple different cell lineages, including myoblasts, adipocytes, osteoblasts and pericytes (Taylor, et al. (1979) Cell 17(4):771-9). In this case, cells are cultured to confluence and then allowed to differentiate over the course of 5 additional days of culture. At this time, the cells are seen to express high levels of CD13, an established marker of pericytes.
We subsequently explored if SHh signaling was intact in these pericyte cultures. In a typical experiment, confluent C3H10T1/2 cells were allowed to differentiate into pericyte-like cells. After 5 days in culture, SHh with or without IPI-926 were added to the cells in the presence of normal serum. On day 8 of culture, cells were re-fed SHh with or without IPI-926 and shifter to low serum. qRT-PCR analysis was performed on day 9. SHh signaling was detected in these cells as measured by Gli1 mRNA upregulation; the SHh signaling was inhibited by IPI-926 (FIG. 28). Cells were treated on day 8; Gli1 mRNA levels were evaluated in control samples, after SHh addition, after SHh and IPI-926 and cells treated with IPI-926 alone as shown in FIG. 28. […]

[1] = post treatment versus pre treatment BCC sample

## CC1=C2C[C@H]3[C@@H](CC[C@@H]4C[C@H](NS(C)(=O)=O)CC[C@@]43C)[C@@H]2CC[C@@]2(C1)O[C@@H]1C[C@H](C)CN[C@H]1[C@H]2C [IPI-926]
Gli1; [1]
  overall reduction of Gli1 protein staining: 57%
  reduction in nuclear Gli1 stain: 60%
Gli1; post-treatment (27% before treatment)
  nuclei stained positive for Gli1: 16%
Gli1; post-treatment (100 before treatment)
  H-score of Gli1 staining: 57
Bx-PC3 tumors
  activity on the growth of Bx-PC3 tumors: approximately the same single agent activity
SHh signaling
  SHh-induced Gli1 mRNA upregulation: inhibited
  SHh-induced downregulation of RGS5 mRNA: reversed

Source: US20150025012A1, “METHODS AND COMPOSITIONS FOR IDENTIFICATION, ASSESSMENT AND TREATMENT OF CANCERS ASSOCIATED WITH HEDGEHOG SIGNALING” (Infinity Pharmaceuticals, Inc., priority 2010, published 2015)
